Experimental data as given in ChEMBL document CHEMBL1201861, “Genomics of Drug Sensitity in Cancer screening data, Wellcome Trust Sanger Institute”.

Assays:
Type in all cases: functional, cell-based
PF-382 = assay: cells; conditions: Homo sapiens
Description: SANGER: Inhibition of human PF-382 cell growth in a cell viability assay.

NCI-H2342 = assay: cells; conditions: Homo sapiens;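 further: growth inhibition of the cancer cell line, determined with a cell viability assay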
Description: SANGER: Inhibition of human NCI-H2342 cell growth in a cell viability assay.

PA-1 = assay: cells; conditions: Homo sapiens;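 further: IC50 for suppression of PA-1 cell proliferation, determined with a cell viability read-out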
Description: SANGER: Inhibition of human PA-1 cell growth in a cell viability assay.

RVH-421 = assay: cells; conditions: Homo sapiens
Description: SANGER: Inhibition of human RVH-421 cell growth in a cell viability assay.

SK-MES-1 = assay: cells; conditions: Homo sapiens;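 further: growth inhibition of human SK-MES-1 cells, read out with a cell viability assay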
Description: SANGER: Inhibition of human SK-MES-1 cell growth in a cell viability assay.

DoTc2-4510 = assay: cells; conditions: Homo sapiens
DU-145 = assay: cells; conditions: Homo sapiens
Description: SANGER: Inhibition of human DU-145 cell growth in a cell viability assay.

HCC70 = assay: cells; conditions: Homo sapiens;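 further: cell viability assay measuring how strongly the compound suppresses proliferation of HCC70 cells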
Description: SANGER: Inhibition of human HCC70 cell growth in a cell viability assay.

SIMA = assay: cells; conditions: Homo sapiens;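 further: growth inhibition of SIMA cells, measured with a cell viability readout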
Description: SANGER: Inhibition of human SIMA cell growth in a cell viability assay.

UO-31 = assay: cells; conditions: Homo sapiens
Description: SANGER: Inhibition of human U031 cell growth in a cell viability assay.

YKG-1 = assay: cells; conditions: Homo sapiens;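 further: cell growth inhibition, read out with a viability assay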
Description: SANGER: Inhibition of human YKG-1 cell growth in a cell viability assay.

NCI-H28 = assay: cells; conditions: Homo sapiens;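 further: growth inhibition of human NCI-H28 cells, read out as cell viability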
Description: SANGER: Inhibition of human NCI-H28 cell growth in a cell viability assay.

NCI-H345 = assay: cells; conditions: Homo sapiens;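 further: growth inhibition of NCI-H345 cells measured with a cell viability assay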
Description: SANGER: Inhibition of human NCI-H345 cell growth in a cell viability assay.

CaR-1 = assay: cells; conditions: Homo sapiens;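 further: growth inhibition of human CaR-1 cancer cells, read out with a cell viability assay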
Description: SANGER: Inhibition of human CaR-1 cell growth in a cell viability assay.

HOP-92 = assay: cells; conditions: Homo sapiens;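 further: cell viability readout, with IC50 reflecting inhibition of HOP-92 cell growth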
Description: SANGER: Inhibition of human HOP-92 cell growth in a cell viability assay.

VMRC-RCZ = assay: cells; conditions: Homo sapiens
Description: SANGER: Inhibition of human VMRC-RCZ cell growth in a cell viability assay.

TE-441-T = assay: cells; conditions: Homo sapiens
Description: SANGER: Inhibition of human TE-441-T cell growth in a cell viability assay.

MKN-7 = assay: cells; conditions: Homo sapiens;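 further: growth inhibition of MKN-7 cells, read out with a cell viability assay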
Description: SANGER: Inhibition of human MKN7 cell growth in a cell viability assay.

NCI-H524 = assay: cells; conditions: Homo sapiens;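 further: growth inhibition of human NCI-H524 cells, read out through a cell viability assay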
Description: SANGER: Inhibition of human NCI-H524 cell growth in a cell viability assay.

UMC-11 = assay: cells; conditions: Homo sapiens;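 further: growth inhibition of UMC-11 cells, read out with a cell viability assay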
Description: SANGER: Inhibition of human UMC-11 cell growth in a cell viability assay.

CAL-72 = assay: cells; conditions: Homo sapiens;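 further: cell viability assay measuring inhibition of proliferation in the CAL-72 cell line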
Description: SANGER: Inhibition of human CAL-72 cell growth in a cell viability assay.

M059J = assay: cells; conditions: Homo sapiens;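 further: growth inhibition of M059J cells, read out with a cell viability assay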
Description: SANGER: Inhibition of human M059J cell growth in a cell viability assay.

RD = assay: cells; conditions: Homo sapiens
Description: SANGER: Inhibition of human RD cell growth in a cell viability assay.

OE19 = assay: cells; conditions: Homo sapiens;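 further: growth inhibition of OE19 cells, measured through a cell viability read-out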
Description: SANGER: Inhibition of human OE19 cell growth in a cell viability assay.

LC4-1 = assay: cells; conditions: Homo sapiens;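 further: growth inhibition of LC4-1 cells, read out with a cell viability assay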
Description: SANGER: Inhibition of human LC4-1 cell growth in a cell viability assay.

Ca-Ski = assay: cells; conditions: Homo sapiens;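 further: cell viability assay measuring inhibition of Ca-Ski cell growth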
Description: SANGER: Inhibition of human Ca-Ski cell growth in a cell viability assay.

NY = assay: cells; conditions: Homo sapiens
Description: SANGER: Inhibition of human NY cell growth in a cell viability assay.

BL-70 = assay: SANGER: Inhibition of human BL-70 cell growth in a cell viability assay.
SK-MEL-30 = assay: cells; conditions: Homo sapiens;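 further: growth inhibition of SK-MEL-30 cells, determined with a cell viability assay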
Description: SANGER: Inhibition of human SK-MEL-30 cell growth in a cell viability assay.

SIG-M5 = assay: cells; conditions: Homo sapiens;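 further: cell viability assay read-out, measuring how strongly growth of cultured human SIG-M5 cells is inhibited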
Description: SANGER: Inhibition of human SIG-M5 cell growth in a cell viability assay.

PANC-08-13 = assay: cells; conditions: Homo sapiens
Description: SANGER: Inhibition of human PANC-08-13 cell growth in a cell viability assay.

NB12 = assay: cells; conditions: Homo sapiens;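 further: growth inhibition of human NB12 cells, read out by a cell viability assay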
Description: SANGER: Inhibition of human NB12 cell growth in a cell viability assay.

WM-115 = assay: cells; conditions: Homo sapiens
Description: SANGER: Inhibition of human WM-115 cell growth in a cell viability assay.

CWR22R = assay: cells; conditions: Homo sapiens, 22Rv1;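 further: growth inhibition of 22Rv1 cells, read out with a cell viability assay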
Description: SANGER: Inhibition of human 22RV1 cell growth in a cell viability assay.

NCI-H2171 = assay: cells; conditions: Homo sapiens;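 further: growth inhibition of human NCI-H2171 cells, read out by a cell viability assay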
Description: SANGER: Inhibition of human NCI-H2171 cell growth in a cell viability assay.

HT55 = assay: cells; conditions: Homo sapiens;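 further: cell viability readout measuring growth inhibition of human HT55 cells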
Description: SANGER: Inhibition of human HT55 cell growth in a cell viability assay.

23132-87 = assay: cells; conditions: Homo sapiens
Description: SANGER: Inhibition of human 23132-87 cell growth in a cell viability assay.

BC-3 = assay: cells; conditions: Homo sapiens;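 further: cell viability assay measuring growth inhibition of human BC-3 cells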
Description: SANGER: Inhibition of human BC-3 cell growth in a cell viability assay.

SW1710 = assay: cells; conditions: Homo sapiens;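 further: growth inhibition of SW1710 cells, determined with a cell viability assay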
Description: SANGER: Inhibition of human SW1710 cell growth in a cell viability assay.

HCC 2998 = assay: cells; conditions: Homo sapiens;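 further: growth inhibition of human HCC2998 cells, measured with a cell viability read-out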
Description: SANGER: Inhibition of human HCC2998 cell growth in a cell viability assay.

IM-9 = assay: SANGER: Inhibition of human IM-9 cell growth in a cell viability assay.
NCI-H1623 = assay: cells; conditions: Homo sapiens;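 further: cell viability assay used as the read-out for growth inhibition of NCI-H1623 cells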
Description: SANGER: Inhibition of human NCI-H1623 cell growth in a cell viability assay.

ME-180 = assay: cells; conditions: Homo sapiens;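 further: cell viability assay measuring growth inhibition of ME-180 cells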
Description: SANGER: Inhibition of human ME-180 cell growth in a cell viability assay.

M14 = assay: cells; conditions: Homo sapiens;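 further: growth inhibition of M14 cells, read out with a cell viability assay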
Description: SANGER: Inhibition of human M14 cell growth in a cell viability assay.

BOKU = assay: cells; conditions: Homo sapiens;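 further: growth inhibition of the human BOKU cell line, read out by a cell viability assay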
Description: SANGER: Inhibition of human BOKU cell growth in a cell viability assay.

T98G = assay: cells; conditions: Homo sapiens;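 further: growth inhibition of T98G cells, read out by a cell viability assay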
Description: SANGER: Inhibition of human T98G cell growth in a cell viability assay.

MDA-MB-231 = assay: cells; conditions: Homo sapiens
Description: SANGER: Inhibition of human MDA-MB-231 cell growth in a cell viability assay.

HSC-3 = assay: cells; conditions: Homo sapiens
Description: SANGER: Inhibition of human HSC-3 cell growth in a cell viability assay.

HT-1376 = assay: cells; conditions: Homo sapiens
Description: SANGER: Inhibition of human HT-1376 cell growth in a cell viability assay.

NCI-N87 = assay: cells; conditions: Homo sapiens;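 further: growth inhibition of human NCI-N87 cells, read out with a cell viability assay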
Description: SANGER: Inhibition of human NCI-N87 cell growth in a cell viability assay.

CHL-1 = assay: cells; conditions: Homo sapiens;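 further: cell growth inhibition, read out with a cell viability assay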
Description: SANGER: Inhibition of human CHL-1 cell growth in a cell viability assay.

NCI-H661 = assay: cells; conditions: Homo sapiens;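 further: cell viability assay read-out, IC50 being the concentration that inhibits growth of the cells by half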
Description: SANGER: Inhibition of human NCI-H661 cell growth in a cell viability assay.

ECC4 = assay: cells; conditions: Homo sapiens;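 further: growth inhibition of ECC4 cells, read out with a cell viability assay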
Description: SANGER: Inhibition of human ECC4 cell growth in a cell viability assay.

NCI-H1993 = assay: cells; conditions: Homo sapiens;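 further: growth inhibition of the cancer cell line, assessed with a cell viability assay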
Description: SANGER: Inhibition of human NCI-H1993 cell growth in a cell viability assay.

SW1990 = assay: cells; conditions: Homo sapiens
Description: SANGER: Inhibition of human SW1990 cell growth in a cell viability assay.

LC-1F = assay: cells; conditions: Homo sapiens;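 further: growth inhibition of human LC-1F cells, read out with a cell viability assay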
Description: SANGER: Inhibition of human LC-1F cell growth in a cell viability assay.

EB-3 = assay: cells; conditions: Homo sapiens;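 further: human EB-3 cells, growth inhibition read out via a cell viability assay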
Description: SANGER: Inhibition of human EB-3 cell growth in a cell viability assay.

NCI-H2009 = assay: cells; conditions: Homo sapiens;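 further: cell viability assay measuring inhibition of NCI-H2009 cell growth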
Description: SANGER: Inhibition of human NCI-H2009 cell growth in a cell viability assay.

EVSA-T = assay: cells; conditions: Homo sapiens;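 further: growth inhibition of EVSA-T cells, read out with a cell viability assay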
Description: SANGER: Inhibition of human EVSA-T cell growth in a cell viability assay.

RPMI-2650 = assay: cells; conditions: Homo sapiens
Description: SANGER: Inhibition of human RPMI-2650 cell growth in a cell viability assay.

CP50-MEL-B = assay: cells; conditions: Homo sapiens;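 further: growth inhibition of the human cell line, measured with a cell viability read-out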
Description: SANGER: Inhibition of human CP50-MEL-B cell growth in a cell viability assay.

C-33-A = assay: cells; conditions: Homo sapiens;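 further: cell viability assay measuring growth inhibition of C-33-A cells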
Description: SANGER: Inhibition of human C-33-A cell growth in a cell viability assay.

NCI-H2405 = assay: cells; conditions: Homo sapiens;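 further: growth inhibition of the human cell line, read out with a cell viability assay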
Description: SANGER: Inhibition of human NCI-H2405 cell growth in a cell viability assay.

NCI-H1573 = assay: cells; conditions: Homo sapiens;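 further: growth inhibition of NCI-H1573 cells, read out with a cell viability assay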
Description: SANGER: Inhibition of human NCI-H1573 cell growth in a cell viability assay.

THP-1 = assay: cells; conditions: Homo sapiens;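 further: growth inhibition of THP-1 cells, read out via a cell viability assay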
Description: SANGER: Inhibition of human THP-1 cell growth in a cell viability assay.

CC(O)(CS(=O)(=O)c1ccc(F)cc1)C(=O)Nc1ccc(C#N)c(C(F)(F)F)c1 (stereo not given) [BICALUTAMIDE]
IC50 (PF-382): > 1020 nM | IC50 (NCI-H2342): > 1020 nM | IC50 (PA-1): > 1020 nM | IC50 (RVH-421): > 1020 nM | IC50 (SK-MES-1): > 1020 nM | IC50 (DoTc2-4510): > 1020 nM | IC50 (DU-145): > 1020 nM | IC50 (HCC70): > 1020 nM | IC50 (SIMA): > 1020 nM | IC50 (UO-31): > 1020 nM | IC50 (YKG-1): > 1020 nM | IC50 (NCI-H28): > 1020 nM | IC50 (NCI-H345): > 1020 nM | IC50 (CaR-1): > 1020 nM | IC50 (HOP-92): > 1020 nM | IC50 (VMRC-RCZ): > 1020 nM | IC50 (TE-441-T): > 1020 nM | IC50 (MKN-7): > 1020 nM | IC50 (NCI-H524): > 1020 nM | IC50 (UMC-11): > 1020 nM | IC50 (CAL-72): > 1020 nM | IC50 (M059J): > 1020 nM | IC50 (RD): > 1020 nM | IC50 (OE19): > 1020 nM | IC50 (LC4-1): > 1020 nM | IC50 (Ca-Ski): > 1020 nM | IC50 (NY): > 1020 nM | IC50 (BL-70): > 1020 nM | IC50 (SK-MEL-30): > 1020 nM | IC50 (SIG-M5): > 1020 nM | IC50 (PANC-08-13): > 1020 nM | IC50 (NB12): > 1020 nM | IC50 (WM-115): > 1020 nM | IC50 (CWR22R): > 1020 nM | IC50 (NCI-H2171): > 1020 nM | IC50 (HT55): > 1020 nM | IC50 (23132-87): > 1020 nM | IC50 (BC-3): > 1020 nM | IC50 (SW1710): > 1020 nM | IC50 (HCC 2998): > 1020 nM | IC50 (IM-9): > 1020 nM | IC50 (NCI-H1623): > 1020 nM | IC50 (ME-180): > 1020 nM | IC50 (M14): > 1020 nM | IC50 (BOKU): > 1020 nM | IC50 (T98G): > 1020 nM | IC50 (MDA-MB-231): > 1020 nM | IC50 (HSC-3): > 1020 nM | IC50 (HT-1376): > 1020 nM | IC50 (NCI-N87): > 1020 nM | IC50 (CHL-1): > 1020 nM | IC50 (NCI-H661): > 1020 nM | IC50 (ECC4): > 1020 nM | IC50 (NCI-H1993): > 1020 nM | IC50 (SW1990): > 1020 nM | IC50 (LC-1F): > 1020 nM | IC50 (EB-3): > 1020 nM | IC50 (NCI-H2009): > 1020 nM | IC50 (EVSA-T): > 1020 nM | IC50 (RPMI-2650): > 1020 nM | IC50 (CP50-MEL-B): > 1020 nM | IC50 (C-33-A): > 1020 nM | IC50 (NCI-H2405): > 1020 nM | IC50 (NCI-H1573): > 1020 nM | IC50 (THP-1): > 1020 nM

CCNC(=O)c1noc(-c2cc(C(C)C)c(O)cc2O)c1-c1ccc(CN2CCOCC2)cc1 [LUMINESPIB]
IC50 (PF-382): 48.3 nM | IC50 (NCI-H2342): 17.6 nM | IC50 (PA-1): 27.6 nM | IC50 (RVH-421): 19.6 nM | IC50 (SK-MES-1): 9.45 nM | IC50 (DoTc2-4510): 21.2 nM | IC50 (DU-145): 12.9 nM | IC50 (HCC70): 54.5 nM | IC50 (SIMA): > 256 nM | IC50 (UO-31): 47.7 nM | IC50 (YKG-1): 11.6 nM | IC50 (NCI-H28): > 256 nM | IC50 (NCI-H345): > 256 nM | IC50 (CaR-1): > 256 nM | IC50 (HOP-92): 77.1 nM | IC50 (VMRC-RCZ): 16.5 nM | IC50 (TE-441-T): 49.3 nM | IC50 (MKN-7): > 256 nM | IC50 (NCI-H524): > 256 nM | IC50 (UMC-11): > 256 nM | IC50 (CAL-72): 166 nM | IC50 (M059J): 22.4 nM | IC50 (RD): 26.6 nM | IC50 (OE19): 19.5 nM | IC50 (LC4-1): 115 nM | IC50 (Ca-Ski): 37.8 nM | IC50 (NY): 17.4 nM | IC50 (BL-70): 33.9 nM | IC50 (SK-MEL-30): 43.6 nM | IC50 (SIG-M5): 4.89 nM | IC50 (PANC-08-13): 77.2 nM | IC50 (NB12): 95.2 nM | IC50 (WM-115): > 256 nM | IC50 (CWR22R): 35.1 nM | IC50 (NCI-H2171): 186 nM | IC50 (HT55): > 256 nM | IC50 (23132-87): 105 nM | IC50 (BC-3): 30.2 nM | IC50 (SW1710): 1.86 nM | IC50 (HCC 2998): 29.4 nM | IC50 (IM-9): 235 nM | IC50 (NCI-H1623): > 256 nM | IC50 (ME-180): 47.8 nM | IC50 (M14): 218 nM | IC50 (BOKU): 66.7 nM | IC50 (T98G): 74.2 nM | IC50 (MDA-MB-231): 90.8 nM | IC50 (HSC-3): 6.41 nM | IC50 (HT-1376): 98.6 nM | IC50 (NCI-N87): 78 nM | IC50 (CHL-1): 41.7 nM | IC50 (NCI-H661): 112 nM | IC50 (ECC4): 199 nM | IC50 (NCI-H1993): > 256 nM | IC50 (SW1990): 27.2 nM | IC50 (LC-1F): > 256 nM | IC50 (EB-3): 224 nM | IC50 (NCI-H2009): 27.6 nM | IC50 (EVSA-T): 92.7 nM | IC50 (RPMI-2650): 14.3 nM | IC50 (CP50-MEL-B): 83.7 nM | IC50 (C-33-A): 15.1 nM | IC50 (NCI-H2405): 28.9 nM | IC50 (NCI-H1573): 177 nM | IC50 (THP-1): 153 nM
